Test results: ChEMBL document CHEMBL1201862, “PubChem BioAssay data set” (2004)
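Method: 48-hour compound exposure of cells in 96-well plates, five concentrations, linear interpolation of endpoints. Here, GI50 denotes the concentration required for 50% inhibition of growth.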 The source made the active and inactive calls. No stated cut-off is given here; in the data, active = GI50 up to about 1.1 µM and inactive = higher.

Experiments:
Experiment in all cases: NCI anticancer screen, dose series, 48 h
SNB-78 = test system: SNB-78
HOP-18 = test system: HOP-18
DLD-1 = test system: DLD-1
DMS-273 = test system: DMS-273
LXFL 529 = test system: LXFL 529
M19-MEL = test system: M19-MEL
DMS-114 = test system: DMS-114
XF498 = test system: XF498
RXF 631 = test system: RXF 631

Row | SMILES | GI50 (SNB-78) | GI50 (HOP-18) | GI50 (DLD-1) | GI50 (DMS-273) | GI50 (LXFL 529) | GI50 (M19-MEL) | GI50 (DMS-114) | GI50 (XF498) | GI50 (RXF 631)
1 | NC(CSC(c1ccccc1)(c1ccccc1)c1ccccc1)C(=O)O (centres undefined) | 2.61 µM (inactive) | 4.14 µM (inactive) | 0.7 µM (active) | 0.235 µM (active) | 7.76 µM (inactive) | 3.19 µM (inactive) | – | – | –
2 | O=C(N/N=C(/c1nc2ccc([N+](=O)[O-])cc2[nH]c1=O)C(O)c1ccc([N+](=O)[O-])cc1)c1ccncc1 (centres undefined) | > 100 µM (inactive) | > 100 µM (inactive) | > 100 µM (inactive) | – | 53.1 µM (inactive) | > 100 µM (inactive) | 13.4 µM (inactive) | > 100 µM (inactive) | –
3 | N=C1SCCS1 | > 100 µM (inactive) | – | > 100 µM (inactive) | – | > 100 µM (inactive) | > 100 µM (inactive) | > 100 µM (inactive) | > 100 µM (inactive) | –
4 | COC(=O)/C(=N\N)C(C(=O)C(=O)Nc1nnc(S)[nH]1)c1nc2ccc([N+](=O)[O-])cc2nc1O (centres undefined) | > 100 µM (inactive) | > 100 µM (inactive) | > 100 µM (inactive) | > 100 µM (inactive) | > 100 µM (inactive) | > 100 µM (inactive) | > 100 µM (inactive) | – | > 100 µM (inactive)
5 | CC1(C(=O)O)CCC[C@@]2(C)C1CC[C@@]1(C)c3cocc3CCC21 (some centres undefined) | > 100 µM (inactive) | > 100 µM (inactive) | > 100 µM (inactive) | > 100 µM (inactive) | > 100 µM (inactive) | > 100 µM (inactive) | > 100 µM (inactive) | > 100 µM (inactive) | > 100 µM (inactive)
6 | CO[C@@H]1C=C[C@@]23c4cc5c(cc4C(=O)O[C@H]2CN(C)[C@H]3C1)OCO5 | > 100 µM (inactive) | > 100 µM (inactive) | > 100 µM (inactive) | > 100 µM (inactive) | > 100 µM (inactive) | > 100 µM (inactive) | > 100 µM (inactive) | > 100 µM (inactive) | –
7 | C=C(Br)C(C)(Br)CCC(Br)C(C)(C)Br (centres undefined) | 26.2 µM (inactive) | > 100 µM (inactive) | 37 µM (inactive) | 19.2 µM (inactive) | 20.5 µM (inactive) | 17 µM (inactive) | 17.2 µM (inactive) | – | –
8 | O=C1/C(=C\c2ccccc2)c2ccccc2N1/N=C\c1ccccc1 | > 100 µM (inactive) | > 100 µM (inactive) | 59 µM (inactive) | > 100 µM (inactive) | – | 97.7 µM (inactive) | > 100 µM (inactive) | > 100 µM (inactive) | –
9 | C[N+](C)(C)CC(=O)N/N=C(/Cc1nc2ccc(Cl)cc2nc1O)C1=NS(=O)(=O)c2cc(S(N)(=O)=O)c(Cl)cc2N1 | – | – | > 100 µM (inactive) | – | – | > 100 µM (inactive) | > 100 µM (inactive) | – | –
10 | O=C1OC2C=CC1C1(CCOC1=O)C2 (centres undefined) | – | > 100 µM (inactive) | > 100 µM (inactive) | > 100 µM (inactive) | > 100 µM (inactive) | > 100 µM (inactive) | > 100 µM (inactive) | > 100 µM (inactive) | –
11 | O=S(=O)(c1ccccc1)C1CN(Cc2ccccc2)CCN(Cc2ccccc2)C1 | – | – | 12.1 µM (inactive) | 12.7 µM (inactive) | 11.3 µM (inactive) | 14.4 µM (inactive) | 10 µM (inactive) | 18.8 µM (inactive) | –
12 | COc1ccccc1/C=C(\NC(=O)c1ccccc1)c1nc2ccc(Cl)cc2[nH]1 | 38.9 µM (inactive) | 26.2 µM (inactive) | 23.8 µM (inactive) | 37.1 µM (inactive) | 21.1 µM (inactive) | 32.9 µM (inactive) | 17.2 µM (inactive) | 34.4 µM (inactive) | –
13 | COc1ccccc1OCC(COC(=O)Nc1ccc(C)cc1)OC(=O)Nc1ccc(C)cc1 (centres undefined) | 26.7 µM (inactive) | 18.4 µM (inactive) | 16 µM (inactive) | 16.7 µM (inactive) | 27.1 µM (inactive) | – | 14.7 µM (inactive) | – | 19.4 µM (inactive)
14 | [O-][n+]1c2cc(CBr)c(CBr)cc2[n+]([O-])c2c(O)cccc21 | 1.94 µM (inactive) | 2.39 µM (inactive) | 1.41 µM (inactive) | 1.68 µM (inactive) | 1.56 µM (inactive) | 1.73 µM (inactive) | 1.69 µM (inactive) | 2.35 µM (inactive) | 3.15 µM (inactive)
15 | COc1ccc(NC(=O)CC(=O)n2nc(-c3ccccc3)c(/N=N/c3ccc(C)cc3)c2-c2ccccc2)cc1 | 20.8 µM (inactive) | 24.3 µM (inactive) | > 79.3 µM (inactive) | 33.3 µM (inactive) | 40.8 µM (inactive) | 28.9 µM (inactive) | > 49.5 µM (inactive) | 12.4 µM (inactive) | 54.5 µM (inactive)
16 | CC1=CCN(c2ccccn2)OC1c1ccccc1 (centres undefined) | > 100 µM (inactive) | > 100 µM (inactive) | > 100 µM (inactive) | > 100 µM (inactive) | > 100 µM (inactive) | > 100 µM (inactive) | > 100 µM (inactive) | > 100 µM (inactive) | > 100 µM (inactive)
17 | O=C(Nc1nnc(S)[nH]1)C(=O)C1C(=O)Nc2ccccc2[S+]1[O-] (centres undefined) | – | > 100 µM (inactive) | – | > 100 µM (inactive) | > 100 µM (inactive) | > 100 µM (inactive) | > 100 µM (inactive) | – | > 100 µM (inactive)
18 | O=C1N=C2Sc3ccc4ccccc4c3N2C1=O | 26.4 µM (inactive) | 15 µM (inactive) | 31.1 µM (inactive) | 22.8 µM (inactive) | 18.7 µM (inactive) | 36.1 µM (inactive) | 39.7 µM (inactive) | 19.2 µM (inactive) | 20.8 µM (inactive)
19 | CC1(C)COC(C23C4C5C2C2C3C4C52I)=N1 (centres undefined) | > 100 µM (inactive) | > 100 µM (inactive) | > 100 µM (inactive) | – | > 100 µM (inactive) | > 100 µM (inactive) | > 100 µM (inactive) | > 100 µM (inactive) | –
20 | CCOC(=O)C1C(=O)c2cccc(OC)c2C2COC(=O)N12 (centres undefined) | – | > 100 µM (inactive) | > 100 µM (inactive) | > 100 µM (inactive) | > 100 µM (inactive) | > 100 µM (inactive) | > 100 µM (inactive) | > 100 µM (inactive) | > 100 µM (inactive)
21 | c1ccc(SC(CCCCC(Sc2ccccc2)Sc2ccccc2)Sc2ccccc2)cc1 | > 100 µM (inactive) | – | > 100 µM (inactive) | > 100 µM (inactive) | > 100 µM (inactive) | > 100 µM (inactive) | > 100 µM (inactive) | > 100 µM (inactive) | > 100 µM (inactive)
22 | O=c1[nH]nc(-c2ccccc2)c(-c2ccccc2)c1-n1nc(-c2ccccc2)c2ccccc2c1=O | > 100 µM (inactive) | > 100 µM (inactive) | 76.7 µM (inactive) | 89.5 µM (inactive) | 46.8 µM (inactive) | > 100 µM (inactive) | – | – | –
23 | CCCCCCCCCCCCCC(=O)OCC1OC(OC)C(NC(=O)N(CCCl)N=O)C(O)C1O (centres undefined) | 25.5 µM (inactive) | > 100 µM (inactive) | 20.8 µM (inactive) | 12.9 µM (inactive) | 16.3 µM (inactive) | – | 18.5 µM (inactive) | 15.9 µM (inactive) | 20.9 µM (inactive)
24 | Cc1ccc(NC(=O)C(=O)C(C(=O)/C=C/c2ccccc2)C2OC(=O)c3ccccc32)c(C)c1 (centres undefined) | > 100 µM (inactive) | – | > 100 µM (inactive) | – | > 100 µM (inactive) | > 100 µM (inactive) | > 100 µM (inactive) | > 100 µM (inactive) | > 100 µM (inactive)
25 | O=[N+]([O-])c1ccc(C2CC(c3ccccc3Cl)=Nc3ccccc3S2)cc1 (centres undefined) | 16.1 µM (inactive) | 3.3 µM (inactive) | 2.3 µM (inactive) | 4.71 µM (inactive) | 2.84 µM (inactive) | 10.5 µM (inactive) | 2.19 µM (inactive) | 7.13 µM (inactive) | 5.74 µM (inactive)
26 | CC1/C=C/[C@@]2(C)CCC(C(C)(C)O)C2C(O)C[C@](C)(O)/C=C/C1 (some centres undefined) | > 100 µM (inactive) | > 100 µM (inactive) | > 100 µM (inactive) | > 100 µM (inactive) | > 100 µM (inactive) | – | > 100 µM (inactive) | > 100 µM (inactive) | –
27 | COc1cc2c(c(OC)c1OC)-c1ccc(SC)c(=O)cc1[C@@H](NCc1cccc([N+](=O)[O-])c1)CC2 | < 0.01 µM (active) | > 100 µM (inactive) | < 0.01 µM (active) | < 0.01 µM (active) | < 0.01 µM (active) | < 0.01 µM (active) | < 0.01 µM (active) | < 0.01 µM (active) | < 0.01 µM (active)
28 | CN(C)CCN1C(=O)c2cccc3cc([N+](=O)[O-])cc(c23)C1=O [MITONAFIDE] | 2 µM (inactive) | 0.652 µM (active) | 0.873 µM (active) | 0.0514 µM (active) | 0.682 µM (active) | 0.377 µM (active) | 0.223 µM (active) | 0.303 µM (active) | 0.171 µM (active)
